Measured values taken from article PMC4086519, “Anti-Trichophyton Activity of Protocatechuates and Their Synergism with Fluconazole” (Evidence-based Complementary and Alternative Medicine : eCAM, 2014).
In brackets after ≈: the same amount, converted by molar mass. Read-outs that look alike come from different tables or passages of the source.

How the values were obtained:
Format in all cases: cell-based
Trichophyton rubrum [1] = assay: Minimum fungicide concentration (MFC)
Procedure: (§1) A qualitative analysis of the fungal viability was performed by transferring a portion of the wells to a plate with Sabouraud (Difco, BD Biosciences) medium and incubating it at 35°C for the time determined for each fungal agent. […] A visual reading was performed to confirm the death or growth inhibition provided by fluconazole and the sixteen semisynthetic substances derived from protocatechuic acid.

[2] = tested on: Trichophyton mentagrophytes; assay: Minimum fungicide concentration (MFC)
Procedure: as §1

Trichophyton rubrum [3] = assay: Broth microdilution MIC (CLSI M38-A2, modified)
Procedure: (§2) To evaluate its antifungal activity, […] of dermatophytes were tested: two clinical strains of Trichophyton rubrum (Tr1 and Tr2), Trichophyton rubrum ATCC MYA 3108, two clinical strains of Trichophyton mentagrophytes (Tm1 and Tm2), and Trichophyton mentagrophytes ATCC 40131 (Tm3). The microorganisms were obtained from the collection of the Clinical Mycology Laboratory of the Department of Clinical Analyses at the School of Pharmaceutical Sciences of Universidade Estadual Paulista (UNESP). The strains were cultivated on Sabouraud dextrose agar (Difco, BD Biosciences) and incubated at 28°C for 7-15 days. For all experiments, the strains were cultivated on Potato Dextrose Agar (Difco, BD Biosciences) and incubated at 28°C as described above or until sporulation. The dilution of the synthetic compounds was performed with DMSO (Synth, Diadema, Sao Paulo, Brazil) as described by Scorzoni et al.. […] The antifungal drugs were diluted according to the CLSI […]-A2 document. Stock solutions of Fluconazole (Sigma-Aldrich, St. Louis, MO, USA) were prepared, considering its power. Serial twofold dilutions were prepared according to the recommendations of Zhang and collaborators, with some modifications. The antifungal activity tests were performed using the broth microdilution method as described in […]-A2, a document produced by the Clinical and Laboratory Standards Institute (CLSI, 2008), with modifications. The medium used was RPMI 1640 with L-glutamine (Sigma-Aldrich, St. Louis, MO, USA) buffered to pH 7.0 with 0.165 M morpholinepropanesulfonic acid (MOPS) (Sigma-Aldrich, St. Louis, MO, USA), supplemented with 2% glucose. […] The suspension of conidia was then transferred to small sterile test tubes where they remained for 40 minutes to separate the microconidia, which were lighter and therefore present in the supernatant. […] These suspensions were diluted in RPMI 1640 (Sigma-Aldrich, St. […] Positive (100 μL of RPMI medium with 100 μL of inoculum) and negative (200 μL of RPMI) controls were included in all experiments. The plates were incubated with agitation at 35°C for 7 days. The MIC reading was performed by spectrophotometry at 490 nm.

[4] = tested on: Trichophyton mentagrophytes; assay: Broth microdilution MIC (CLSI M38-A2, modified)
Procedure: as §2

Trichophyton rubrum [5] = assay: Checkerboard synergism assay with fluconazole; details: Trichophyton rubrum; Tr1; checkerboard, 168 hours; read-out: MIC, substances alone
Procedure: (§3) The drug activity was assessed using a checkerboard method derived from a standardised procedure established by the National Committee for Clinical Laboratory Standards ([…]-A2). Briefly, the test was performed on the same medium used for susceptibility testing. Volumes of 50 μL of each drug in a concentration four times the final concentration were dispensed in 96-well plates ([…], Switzerland). To each well, 100 μL of the fungal suspension was added to produce a final concentration of 5.0 × 10^3 CFU/mL. As a negative control, we used 200 μL of RPMI, while as a positive control, we used 100 μL of RPMI medium with 100 μL of inoculum. The plates were incubated at 35°C, and the reading was completed after 168 hours. We conducted visual and spectrophotometric readings at 490 nm. To determine the effect of combinatorial fractions, we calculated the fractional inhibitory concentration (FIC). The FIC was calculated by taking the MIC of the substance in combination/MIC of the substance alone. The sum of the fractional inhibitory concentration (FIC) of each substance consists of the fractional inhibitory concentration index: (the MIC of drug A in combination/the MIC of drug A alone) + (the MIC of drug B in combination/the MIC of drug B alone).

[6] = tested on: Trichophyton mentagrophytes; assay: Checkerboard synergism assay with fluconazole; details: Trichophyton mentagrophytes, checkerboard, 168 hours, read-out: MIC, substances alone
Procedure: as §3

[7] = Tr1, T. rubrum clinical isolate
[8] = Tr2, T. rubrum clinical isolate
[9] = Tm3, T. mentagrophytes ATCC 40131
[10] = Tr1, T. rubrum clinical isolate, 35°C, 7 days
[11] = Tr2, T. rubrum clinical isolate, 35°C, 7 days
[12] = Tr3, T. rubrum ATCC MYA 3108, 35°C, 7 days
[13] = Tm1, clinical isolate, 35°C, 7 days
[14] = Tm2, clinical isolate, 35°C, 7 days
[15] = Tm3, T. mentagrophytes ATCC 40131, 35°C, 7 days

Row | Compound | MFC (Trichophyton rubrum [1]; [7]) [µg/mL] | MFC (Trichophyton rubrum [1]; [8]) [µg/mL] | MFC (Trichophyton rubrum [1]; Tr3, T. rubrum ATCC MYA 3108) [µg/mL] | MFC ([2]; Tm1, clinical isolate) [µg/mL] | MFC ([2]; Tm2, clinical isolate) [µg/mL] | MFC [2, 9] [µg/mL] | MIC (Trichophyton rubrum [3]; [10]) [µg/mL] | MIC (Trichophyton rubrum [3]; [11]) [µg/mL] | MIC (Trichophyton rubrum [3]; [12]) [µg/mL] | MIC [4, 13] [µg/mL] | MIC [4, 14] [µg/mL] | MIC [4, 15] [µg/mL] | also measured
1 | COC(=O)c1ccc(O)c(O)c1 [Protocatechuate methyl] | 62.5 (≈ 372 µM) | 31.2 (≈ 186 µM) | 62.5 (≈ 372 µM) | 250 (≈ 1490 µM) | 62.5 (≈ 372 µM) | 62.5 (≈ 372 µM) | 62.5 (≈ 372 µM) | 31.2 (≈ 186 µM) | 31.2 (≈ 186 µM) | 62.5 (≈ 372 µM) | 62.5 (≈ 372 µM) | 31.2 (≈ 186 µM) | 
2 | CCCCCCCCCCCCCCOC(=O)c1ccc(O)c(O)c1 [Protocatechuate tetradecyl] | > 250 | 125 (≈ 357 µM) | > 250 | > 250 | 250 (≈ 713 µM) | > 250 | > 250 | 125 (≈ 357 µM) | > 250 | > 250 | 125 (≈ 357 µM) | > 250 | 
3 | CCCCCCCCCCOC(=O)c1ccc(O)c(O)c1 [Protocatechuate decyl] | 3.9 (≈ 13.2 µM) | 3.9 (≈ 13.2 µM) | 7.8 (≈ 26.5 µM) | 7.8 (≈ 26.5 µM) | 3.9 (≈ 13.2 µM) | 15.6 (≈ 53 µM) | 3.9 (≈ 13.2 µM) | 3.9 (≈ 13.2 µM) | 3.90 (≈ 13.2 µM) | 7.8 (≈ 26.5 µM) | 3.9 (≈ 13.2 µM) | 3.90 (≈ 13.2 µM) | 
4 | CCCCCCCCCCCCCCCCCCOC(=O)c1ccc(O)c(O)c1 [Protocatechuate octadecyl] | > 250 | > 250 | > 250 | > 250 | > 250 | > 250 | > 250 | > 250 | > 250 | > 250 | > 250 | > 250 | 
5 | OC(Cn1cncn1)(Cn1cncn1)c1ccc(F)cc1F [FLU, Fluconazole] |  |  |  |  |  |  |  |  |  |  |  |  | MIC (Trichophyton rubrum [5]): 2 µg/mL; MIC ([6]; ATCC40131, Tm3 (ATCC 40131)): 0.5 µg/mL; MIC ([6]; Tm1): 1 µg/mL
6 | CCOC(=O)c1ccc(O)c(O)c1 [Protocatechuate ethyl] | 31.2 (≈ 171 µM) | 31.2 (≈ 171 µM) | 31.2 (≈ 171 µM) | 62.5 (≈ 343 µM) | 31.2 (≈ 171 µM) | 125 (≈ 686 µM) | 31.2 (≈ 171 µM) | 31.2 (≈ 171 µM) | 31.2 (≈ 171 µM) | 31.2 (≈ 171 µM) | 31.2 (≈ 171 µM) | 31.2 (≈ 171 µM) | 
7 | CCCOC(=O)c1ccc(O)c(O)c1 [Protocatechuate propyl] | 15.6 (≈ 79.5 µM) | 31.2 (≈ 159 µM) | 31.2 (≈ 159 µM) | 62.5 (≈ 319 µM) | 62.5 (≈ 319 µM) | 31.2 (≈ 159 µM) | 15.6 (≈ 79.5 µM) | 31.2 (≈ 159 µM) | 31.2 (≈ 159 µM) | 15.6 (≈ 79.5 µM) | 62.5 (≈ 319 µM) | 15.6 (≈ 79.5 µM) | 
8 | O=C(O)c1ccc(O)c(O)c1 [Acid protocatechuic, Protocatechuic acid (3,4-dihydroxybenzoic)] |  | 250 (≈ 1620 µM) | 250 (≈ 1620 µM) |  | > 250 |  |  | 250 (≈ 1620 µM) | 250 (≈ 1620 µM) |  | 250 (≈ 1620 µM) |  | MFC (Trichophyton rubrum [1]; Trichophyton rubrum): 250 µg/mL (≈ 1620 µM); MFC ([2]; Trichophyton mentagrophytes): > 250 µg/mL; MFC ([2]; Trichophyton mentagrophytes, ATCC40131): 125 µg/mL (≈ 811 µM); MIC (Trichophyton rubrum [3]; Trichophyton rubrum, 168 h): 250 µg/mL (≈ 1620 µM); MIC ([4]; Trichophyton mentagrophytes, 168 h): 250 µg/mL (≈ 1620 µM); MIC ([4]; Trichophyton mentagrophytes, ATCC40131, 168 h): 125 µg/mL (≈ 811 µM)
9 | CC(=O)Oc1ccc(C(=O)O)cc1OC(C)=O [Acid 3.4 diacetoxybenzoic, 3,4-diacetoxybenzoic acid] |  |  |  |  |  |  |  |  |  |  |  |  | MFC (Trichophyton rubrum [1]; Trichophyton rubrum, Tr1, T. rubrum clinical isolate, read-out: MFC): 250 µg/mL (≈ 1050 µM); MFC (Trichophyton rubrum [1]; Trichophyton rubrum, Tr2, T. rubrum clinical isolate, read-out: MFC): > 250 µg/mL; MFC (Trichophyton rubrum [1]; Trichophyton rubrum, Tr3, T. rubrum ATCC MYA 3108, read-out: MFC): > 250 µg/mL; MFC ([2]; Trichophyton mentagrophytes, ATCC40131, Tm3, T. mentagrophytes ATCC 40131, read-out: MFC): 250 µg/mL (≈ 1050 µM); MFC ([2]; Trichophyton mentagrophytes, Tm1, clinical isolate, read-out: MFC): 250 µg/mL (≈ 1050 µM); MFC ([2]; Trichophyton mentagrophytes, Tm2, clinical isolate, read-out: MFC): > 250 µg/mL; MIC (Trichophyton rubrum [3]; Trichophyton rubrum, 168 h, Tr1, T. rubrum clinical isolate, 35°C, 7 days, read-out: MIC): 250 µg/mL (≈ 1050 µM); MIC (Trichophyton rubrum [3]; Trichophyton rubrum, 168 h, Tr2, T. rubrum clinical isolate, 35°C, 7 days, read-out: MIC): > 250 µg/mL; MIC (Trichophyton rubrum [3]; Trichophyton rubrum, 168 h, Tr3, T. rubrum ATCC MYA 3108, 35°C, 7 days, read-out: MIC): > 250 µg/mL; MIC ([4]; Trichophyton mentagrophytes, 168 h, Tm1, clinical isolate, 35°C, 7 days, read-out: MIC): 250 µg/mL (≈ 1050 µM); MIC ([4]; Trichophyton mentagrophytes, 168 h, Tm2, clinical isolate, 35°C, 7 days, read-out: MIC): > 250 µg/mL; MIC ([4]; Trichophyton mentagrophytes, ATCC40131, 168 h, Tm3, T. mentagrophytes ATCC 40131, 35°C, 7 days, read-out: MIC): 250 µg/mL (≈ 1050 µM)
10 | CCCCCCCCCCCCOC(=O)c1ccc(O)c(O)c1 [Protocatechuate dodecyl] | > 250 | 125 (≈ 388 µM) | 250 (≈ 775 µM) | 250 (≈ 775 µM) | 62.5 (≈ 194 µM) | 62.5 (≈ 194 µM) | > 250 | 125 (≈ 388 µM) | > 250 | 250 (≈ 775 µM) | 62.5 (≈ 194 µM) | 31.2 (≈ 96.8 µM) | 
11 | CCCCCCCCCCCCCCCCOC(=O)c1ccc(O)c(O)c1 [Protocatechuate hexadecyl] | > 250 | > 250 | > 250 | > 250 | > 250 | > 250 | > 250 | > 250 | > 250 | > 250 | > 250 | > 250 | 
12 | CCCCOC(=O)c1ccc(O)c(O)c1 [Protocatechuate butyl] | 15.6 (≈ 74.2 µM) | 7.8 (≈ 37.1 µM) | 7.8 (≈ 37.1 µM) | 62.5 (≈ 297 µM) | 15.6 (≈ 74.2 µM) | 15.6 (≈ 74.2 µM) | 15.6 (≈ 74.2 µM) | 7.8 (≈ 37.1 µM) | 7.8 (≈ 37.1 µM) | 7.80 (≈ 37.1 µM) | 15.6 (≈ 74.2 µM) | 15.6 (≈ 74.2 µM) | 
